Results as given in US20090076067A1, “PHARMACEUTICAL COMPOSITION COMPRISING AZARHODACYANINE COMPOUND AS ACTIVE INGREDIENT” (priority 2005, published 2009).

Legend:
[1] = tested on: Trypanosoma brucei rhodensiense (STIB 900 strain); assay: African trypanosoma protozoa proliferation inhibition screening test; format: cell-based; details: for Selective toxicity: EC50 rat L6 cells / EC50 African trypanosoma protozoa; for EC50: Trypanosoma brucei, STIB900, STIB 900 bloodstream form, 72 hours, Alamar blue, read-out: EC50 Trypanosoma brucei rhod.
Method: In this experiment, bloodstream form trypomastigote of Trypanosoma brucei rhodensiense (STIB 900 strain) was used. The medium used in the experiment was prepared as follows: to filter-sterilized MEM medium, 25 mM N-2-hydroxyethylpiperazine-2-ethane sulfonate (HEPES), 1 g/L glucose, 1% MEM nonessential amino acid, 0.2 mM 2-mercaptoethanol, 2 mM pyruvic calcium salt, 0.1 mM hypoxanthine, and 15% heat-treated horse serum were added. The protozoa was cultured under atmosphere of CO2 concentration 5% and temperature 37° C.
Either the compound of the invention or a positive control (melarsoprol) was dissolved into dimethylsulfoxide (DMSO) to prepare test solution having predefined concentration. To each well in a 96-well culture plate, medium containing 8×10^3 protozoa, and either test solution containing the test compound at predefined concentration or DMSO without compound was added. Then medium was added to achieve 100 μL. The test solution was duplicated.
The culture plate was cultured in an incubator for 72 hours, and the proliferation inhibition activity was examined. The activity was determined as follows. To each well, 10 μL Alamar blue water solution was added, then the plate was again cultured for 2 hours. Then the culture plate was mounted on a fluorescence microplate reader (Spectramax Gemeni XS; Molecular Devices Corporation, U.S.), and irradiated with 536 nm excitation wavelength to determine fluorescence at 588 nm. The trypanosoma infection rate of the sample containing the test composition and that of the control sample was calculated.
(§1) Using the protozoa infection rate thus obtained, the proliferation inhibition rate was calculated according to the following equation to determine 50% proliferation inhibition concentration (EC50).
(§2) Proliferation inhibition rate(%)={1−(b−a)/(c−a)}×100
(§3) a: initial infection rate b: infection rate of the test compound solution c: infection rate of the control

[2] = tested on: Trypanosoma cruzi (Tulahuen C2C4 strain); assay: American trypanosoma protozoa proliferation inhibition screening test; format: cell-based; details: for Selective toxicity: EC50 rat L6 cells / EC50 American trypanosoma protozoa; for EC50: Trypanosoma cruzi, Tulahuen C2C4 strain in rat L6 cells, 96 hours, CPRG/Nonidet, read-out: EC50 Trypanosoma cruzi
Method: In this experiment, amastigote and trypomastigote of Trypanosoma cruzi (Tulahuen C2C4 strain) infected to rat L6 cells were used. The medium used in the experiment was prepared as follows: to RPMI 1640 medium containing L6 cells, L-glutamine (200 mM) and fetal bovine serum was added to achieve concentration of 1% and 10%, respectively. The culture was conducted under CO2 concentration 5% and temperature 37° C.
Either the compound of the invention or a positive control (benznidazole) was dissolved into DMSO to prepare test solution having predefined concentration. To each well in a 96-well culture plate, medium containing 5×10^3 protozoa was added and precultured for 48 hours. After replacing the medium, either the test solution containing compound of the invention in predefined concentration or DMSO without compound was added. The test solution was duplicated.
The plate was cultured in an incubator for 96 hours, and the proliferation inhibition activity was examined. The activity was determined as follows. To each well, 50 μL CPRG/Nonidet was added, then left for 2 to 6 hours. Then the culture plate was mounted on an absorption microplate reader to determine absorption at 540 nm. The trypanosoma infection rate of the sample containing the test compound and that of the control sample was calculated.
as §1, §2, §3

[3] = Rat L6 cell proliferation inhibition test; format: cell-based; details: L6 cells (rat skeletal myoblasts), Table 1, Alamar Blue, read-out: EC50 cytotoxicity L6
Method: Rat-derived L6 cells (rat skeletal myoblast cell) were used for this test. […] The sample was cultured under CO2 concentration 5% and temperature 37° C. Either the composition of the invention or control was dissolved into DMSO, to prepare test solutions having predefined concentration.
The samples were precultured until logarithmic growth phase was reached. Then the culture was transferred to each well in a 96-well culture plate, and either test solution containing test compound at predefined concentration or DSMO without compound was added. The test solution was duplicated.
The plate was cultured in an incubator for 72 hours, to examine proliferation inhibition activity. The activity was examined as follows. Alamar Blue water solution 10 μL was added to each well, and culture was continued for 2 hours. Next, the culture plate was mounted on a fluorescence microplate reader (Spectramax Gemeni XS; Molecular Devices Corporation, U.S.), and irradiated with excitation wavelength 536 nm to determine fluorescence at 588 nm. The survival rate of L6 cells in the test solution sample and control sample was calculated.
Proliferation inhibition rate(%)={(C−A)/(B−A)}×100
A: Initial cell count B: Cell count in control after 3 days C: Cell count in test solution after 3 days

[4] = tested on: Plasmodium Falciparum k1 strain; assay: Chloroquine-resistant tropical malaria protozoa proliferation inhibition screening test; format: cell-based; details: for Selective toxicity: EC50 rat L6 cells / EC50 Chloroquine-resistant malaria protozoa; for EC50: Plasmodium falciparum, chloroquine-resistant K1 strain, 3H-hypoxanthine uptake, read-out: EC50 P. falciparum K1
Method: In this experiment, Plasmodium Falciparum k1 strain protozoa were used. The medium used in the experiment was filter-sterilized RPMI-1640 medium. To the medium human serum was added to achieve 5% concentration. The protozoa was cultured under condition of O2 concentration 3%, CO2 concentration 4%, N2 concentration 93%, and temperature 37° C.
The cultured malaria infected red blood cells were collected by centrifugation, diluted with non-infected red blood cells, to achieve initial infection rate 0.15%. The hematocrit was 2.5%.
To each well in a 96-well culture plate, 200 μL malaria infected culture was added, and either test solution containing test compound at predefined concentration or DMSO having no test compound was added. Each test solution was prepared in duplicate. After 48 hours culture under 37° C., hypoxanthine labeled with radioactive tritium (^3H) of 0.5 μCi was added to each well. After culturing under same condition for 24 hours, the product was collected on a glass fiber filter and washed. The intensity of radiation was measured by Beta plate liquid scintillation counter (Wallac Inc.), to determine malaria protozoa infection rate in test compound samples and control samples.
Using the malaria protozoa infection rate, the proliferation inhibition rate was calculated according to the following equation to determine 50% proliferation inhibition concentration (EC50).
as §2
(§4) a: initial infection rate b: infection rate of test compound solution c: infection rate of the control

[5] = tested on: Leishmania donovani (MHOM/ET/67/L82 strain); assay: Leishmania protozoa proliferation inhibition screening test; format: cell-based
Method: In this experiment, Leishmania donovani (MHOM/ET/67/L82 strain) was used. The protozoa were successively cultured in Syrian Golden hamsters to obtain amastigote. The medium used in the experiment was SM medium having heat-treated fetal bovine serum 10% added, and pH prepared to 5.4. The culture was conducted under CO2 concentration 5% and temperature 37° C.
Either the compound of the invention or a positive control (miltefosine) was dissolved into DMSO to prepare test solution having predefined concentration. To each well of a 96-well culture plate, medium containing predetermined number of protozoa was added and the culture was pre-treated. The concentration of amastigote was determined by CASY cell analyze system (Scharfe GMBH Co., Germany). Subsequently, either test solution containing compound of the invention in predefined concentration or DMSO without compound was added. The test solution was duplicated.
The plate was cultured in an incubator for 72 hours, and the proliferation inhibition activity was examined. The activity was determined as follows. To each well, 10 μL Alamar blue aqueous solution was added, then cultured again for 2 hours. Then the culture plate was mounted on a fluorescence microplate reader (Spectramax Gemeni XS; Molecular Devices Corporation, U.S), and irradiated 536 nm excitation wavelength to determine […] at 588 nm. The leishmania infection rate of the sample containing the test compound and that of the control sample was calculated.
as §1, §2, §4

[6] = tested on: Plasmodium berghei NK 65 strain; assay: animal or person; format: in vivo
Description: For a test to evaluate therapeutic effect of the compound, 4-day suppressive test which is commonly used for in vivo test to evaluate activity of anti-malaria compound was used. In this experiment, rodent malaria protozoa (Plasmodium berghei NK 65 strain) were used. The infected blood was collected from 5-weeks age (SPF) ICR strain male mouse which were infected intraperitoneally and successively cultured. From the caudal vein of the infected mouse, blood was collected to calculate infection rate. After confirming that infection rate was adequately elevated (10% to 20% infection), the malaria infected blood was collected from the heart of the mouse. The infection rate and count of the red blood cells (cells/mL) were calculated. The infected red blood cell was diluted with PBS buffer to achieve […] protozoa per 0.2 mL dose. The infected cells were injected to the caudal vein of uninfected mouse (ICR strain, male, 5-weeks age) to cause infection. Five mice were made into one group, and the test compound was administered in predefined concentration. From 2 hours after infection, the compound was administered every 24 hours for straight 4 days.
The compound of the invention to be used in this test was dissolved in saline (Otsuka Pharmaceutical Co., Ltd.) to obtain test solution of predefined concentration. When the compound was not dissolved in saline, it was dissolved in SSV (saline containing 0.5% sodium=carboxymethyl cellulose, 0.5% benzyl alcohol, 0.4% Tween 80) to prepare test solution. For the control group (non-treatment group), only saline (Otsuka) was administered. Positive controls S-1 to S-5 were dissolved in saline (Otsuka) or SSV in predetermined concentration to prepare test solution. When the compound was not dissolved in saline, it was dissolved in SSV. After measuring weight of each mouse, the dose for each mouse was calculated to achieve 5.0 to 40 mg concentration for weight1 kg.
Five mice were made into one group, and the test compound was administered intraperitoneally at predefined concentration. From 2 hours after infection, the compound was administered every 24 hours for straight 4 days. Subsequent to the 24 hours after last treatment, blood was collected from the tail of the mouse to prepare thin layer smear in order to count malaria protozoa infection in the treatment group and the control group under microscope. The mice showing maximum value and minimum value were excluded from the average calculation (average was calculated for three mice), to determine malaria protozoa infection rate (Parasitemia).
Using malaria protozoa infection rate thus calculated, recovery rate obtained from the test compound (suppression) was determined.
Recovery rate: suppression(%)=(b−a)/b×100 a: Protozoa infection rate in the treatment group b: Protozoa infection rate in the control group Mean survival days: MSD(day)=c−d c: Average days from the initial treatment (date of malaria infection) to the date of death for the treatment group (5 mice) d: Average days from the date of malaria infection to the date of death for the non-treatment (control) group (5 mice) […]
Tables 5 to 7 illustrate the recovery rate (%) and survival days (day) of malaria infected mice treated with intraperitoneal injection of the test compound and the control compound at predefined concentration. The meaning of symbols in the table is as follows.

Structure (SMILES)	Selective toxicity [1]	EC50 [1]	Selective toxicity [2]	EC50 [2]	EC50 at 72 h [3]	Selective toxicity [4]	EC50 [4]	Selective toxicity ([5]; EC50 rat L6 cells / EC50 leishmania protozoa)	EC50 ([5]; Leishmania donovani, amastigote, 72 hours, Alamar blue, read-out: EC50 Leishmania donovani)	inhibition in vivo at 25 mg/kg/day ([6]; Plasmodium berghei, ip, 96 h, read-out: Recovery Rate (suppression))	Survival days (mean survival days, treatment group minus control group) ([6]; dose 25 mg/kg/d intraperitoneally, 4 days)
CCN1C(=O)/C(=c2\nc3c(s2)=CC=CN3C)S/C1=N\c1scc[n+]1C.[Cl-] [Compound A-20]	256	0.095 µg/mL	32	0.763 µg/mL	24.3 µg/mL	2211	0.011 µg/mL				
CCN1C(=O)/C(=c2\nc3c(s2)=CC=CN3C)S/C1=N\c1sc2ccccc2[n+]1C.[Cl-] [Compound A-21]	207	0.029 µg/mL	41	0.145 µg/mL	6.01 µg/mL	3005	0.002 µg/mL	18	0.343 µg/mL		
CCn1c(=O)/c(=C2\C=CC=CN2C)s/c1=C1\S/C(=N\c2sc3cc(Cl)ccc3[n+]2C)N(C(C)C)C1=O [Compound B-36]	85	0.123 µg/mL			10.5 µg/mL	1165	0.009 µg/mL			95.5%	1.7 days
